Each block holds one molecule with its values, some of them ahead of it.
How the values were obtained:
[1] = biological target: Human immunodeficiency virus type 1 reverse transcriptase (Human immunodeficiency virus 1, UniProt Q72547, Y181C); experiment: Inhibition of HIV-1 reverse transcriptase Y181C mutant
CD4+ve Th = experiment: Inhibition of Th1 cell differentiation in human peripheral blood CD4+ve Th cells assessed as decrease in IFNgamma production measured after 5 days; type: functional, cell-based; conditions: 120 h
Jurkat = experiment: Antiproliferative activity against human Jurkat cells assessed as inhibition of cell growth incubated for 72 hrs by Celltiter Glo assay; type: functional, cell-based
[2] = biological target: T1, Cyclin-dependent kinase 2 (Homo sapiens, UniProt P24941); experiment: Inhibition of CDK2 (unknown origin)
[3] = biological target: T1, Cyclin-dependent kinase 2; experiment: Inhibition of pan-CDK2 (unknown origin) relative to control; conditions: concentration not given here
CDK7/Cyclin H/MNAT1 = CDK7/Cyclin H/MNAT1 (Homo sapiens, UniProt P50613); experiment: Inhibition of CDK7/Cyclin H/MAT1 (unknown origin) in leukemia cells; type: cell-based, Leukemia cell
CDK7/Cyclin H/MNAT1, sequence (P51946 whole entry): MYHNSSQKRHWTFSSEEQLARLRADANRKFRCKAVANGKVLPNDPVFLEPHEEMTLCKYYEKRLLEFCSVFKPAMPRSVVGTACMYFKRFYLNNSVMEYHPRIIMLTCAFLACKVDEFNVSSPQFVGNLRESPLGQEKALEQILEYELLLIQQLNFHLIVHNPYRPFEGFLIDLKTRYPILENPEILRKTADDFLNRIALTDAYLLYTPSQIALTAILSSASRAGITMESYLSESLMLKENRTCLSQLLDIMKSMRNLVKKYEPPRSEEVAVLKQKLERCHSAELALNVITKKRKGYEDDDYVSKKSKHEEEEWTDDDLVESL
CDK7/Cyclin H/MNAT1, sequence (P50613 whole entry): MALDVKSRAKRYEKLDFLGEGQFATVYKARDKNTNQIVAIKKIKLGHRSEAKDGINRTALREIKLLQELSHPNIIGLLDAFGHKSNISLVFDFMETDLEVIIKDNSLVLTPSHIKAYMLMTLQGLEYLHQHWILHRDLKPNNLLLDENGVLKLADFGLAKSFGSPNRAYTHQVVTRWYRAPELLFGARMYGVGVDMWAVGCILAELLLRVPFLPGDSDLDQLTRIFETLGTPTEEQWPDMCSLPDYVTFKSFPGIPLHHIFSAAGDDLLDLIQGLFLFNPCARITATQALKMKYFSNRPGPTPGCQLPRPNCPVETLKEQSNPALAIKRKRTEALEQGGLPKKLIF
CDK7/Cyclin H/MNAT1, sequence (P51948 whole entry, further chain): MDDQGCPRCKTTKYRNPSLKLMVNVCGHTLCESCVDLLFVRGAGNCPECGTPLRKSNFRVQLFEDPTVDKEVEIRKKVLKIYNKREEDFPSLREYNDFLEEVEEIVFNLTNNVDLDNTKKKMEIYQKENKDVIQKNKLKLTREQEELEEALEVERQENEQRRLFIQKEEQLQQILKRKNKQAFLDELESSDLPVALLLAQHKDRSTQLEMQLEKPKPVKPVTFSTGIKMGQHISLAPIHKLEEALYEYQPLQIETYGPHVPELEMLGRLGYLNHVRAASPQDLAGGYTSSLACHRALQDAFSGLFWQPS

IC50 (Jurkat): 0.05 µM
Structure (SMILES): CN(C)C/C=C/C(=O)Nc1ccc(C(=O)N2CCC[C@H](Nc3ncc(Cl)c(-c4c[nH]c5ccccc45)n3)C2)cc1

IC50 [2]: 0.16 µM
inhibition [3]: 50%
Structure (SMILES): C=CS(=O)(=O)c1ccc(Nc2nc(OCC3CCCCC3)c3nc[nH]c3n2)cc1

IC50 (CDK7/Cyclin H/MNAT1): 0.0013 µM
Structure (SMILES): C=C(F)C(=O)N1CCN(c2nc(OC[C@@H]3CCCN3C)nc3c2CCN(c2cccc4cccc(Cl)c24)C3)C[C@@H]1CC#N [ADAGRASIB]

The next lines start with the molecule.

Structure (SMILES): Cc1c(Oc2ccccc2OCCn2ccc(=O)[nH]c2=O)cc(N(C)C(=O)CCl)c2ccc(C#N)cc12
IC50 [1]: 0.48 µM

Structure (SMILES): C=CC(=O)N1C[C@H](Nc2ncnc3[nH]ccc23)CC[C@@H]1C [RITLECITINIB]
IC50 (CD4+ve Th): 0.048 µM

Structure (SMILES): C=CC(=O)N(C)c1cc(Oc2ccccc2OCCn2ccc(=O)[nH]c2=O)c(C)c2cc(C#N)ccc12
IC50 [1]: 0.4 µM
